Legend:
Assay type in all cases: in vivo
Stellaria media [1] = test: Pre-emergence herbicidal action, STEME; conditions: dosage 320 g/ha, scored visually after 3 weeks vs untreated controls
Summary of the method: (§1)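 Weed seeds were laid out in sandy loam and covered with soil, then the soil surface was treated with an aqueous suspension or emulsion of the formulated compound containing 0.2% wetting agent. Pots stayed in the greenhouse for 3 weeks before damage was rated visually against untreated plants.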

Pharbitis purpureum = test: Post-emergence herbicidal action, PHBPU; conditions: 80 g/ha, Table D
Summary of the method: (§2)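 Visual percent activity relative to untreated controls, assessed about 3 weeks after foliar treatment, where 0% equals control growth and 100% equals death. Compounds, as wettable powders or emulsion concentrates, are sprayed onto one-leaf-stage plants in sandy loam.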

Matricaria inodora [2] = test: Post-emergence herbicidal action, MATIN; conditions: Table M
Description: (§3) Seeds of monocotyledonous and dicotyledonous weed and crop plants are laid out in sandy loam soil in wood-fiber pots, covered with soil and cultivated in a greenhouse under good growth conditions. 2 to 3 weeks after sowing, the test plants are treated at the one-leaf stage. The compounds of the invention, formulated in the form of wettable powders (WP) or as emulsion concentrates (EC), are then sprayed onto the green parts of the plants in the form of an aqueous suspension or emulsion at a water application rate equating to […], with addition of 0.2% wetting agent. After the test plants have been left to stand in the greenhouse under optimal growth conditions for about 3 weeks, the action of the preparations is assessed visually in comparison to untreated controls (herbicidal action in percent (%): 100% activity=the plants have died, 0% activity=like control plants). […] At the same time, inventive compounds leave Gramineae crops such as barley, wheat, rye, millet/sorghum, corn or rice virtually undamaged when applied post-emergence, even at high active compound dosages. In addition, some substances are also harmless to dicotyledonous crops such as soya, cotton, oilseed rape, sugar beet or potatoes. Some of the compounds according to the invention have high selectivity and are therefore suitable for controlling unwanted vegetation in agricultural crops by the post-emergence method. The data of Tables C and D below illustrate, in an exemplary manner, the […] herbicidal action of the compounds according to the invention, the herbicidal activity being stated in percent.
(§4) For comparison, the herbicidal activity of numerous compounds according to the invention was tested with the structurally closest compounds known from the documents WO 2011/035874, WO 2012/028579 and WO 2012/126932, by the pre- and post-emergence method.

Amaranthus retroflexus [3] = test: Post-emergence herbicidal action, AMARE; conditions: 80 g/ha, Table D
Summary of the method: as §2

LOLMU = test: Pre-emergence herbicidal action, LOLMU; conditions: Table L
ECHCG = test: Post-emergence herbicidal action, ECHCG; conditions: 80 g/ha, Table C
Summary of the method: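 Weed and crop plants grown in sandy loam in the greenhouse, treated at the one-leaf stage 2–3 weeks after sowing. Damage scored visually after about 3 weeks vs untreated controls (0% = control, 100% = dead).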

Cyperus serotinus = test: Pre-emergence herbicidal action, CYPES; conditions: for Herbicidal efficacy against CYPES: Table L; for herbicidal activity CYPES: scored visually after 3 weeks vs untreated controls
Summary of the method: as §1

Avena fatua [4] = test: Pre-emergence herbicidal action, AVEFA; conditions: for Herbicidal efficacy against AVEFA: Table L; for herbicidal activity AVEFA: scored visually after 3 weeks vs untreated controls
Summary of the method: as §1

Setaria viridis [5] = test: Post-emergence herbicidal action, SETVI; conditions: for herbicidal activity SETVI: 80 g/ha, Table C; for Herbicidal efficacy against SETVI: Table M
Summary of the method: as §2

Avena fatua [6] = test: Post-emergence herbicidal action, AVEFA; conditions: for herbicidal activity AVEFA: 80 g/ha, Table C; for Herbicidal efficacy against AVEFA: Table M
Summary of the method: as §2

Viola tricolor [7] = test: Post-emergence herbicidal action, VIOTR; conditions: for herbicidal activity VIOTR: 80 g/ha, Table D; for Herbicidal efficacy against VIOTR: Table M
Summary of the method: as §2

Abutilon theophrasti [8] = test: Post-emergence herbicidal action, ABUTH; conditions: 80 g/ha, Table D
Summary of the method: as §2

Matricaria inodora [9] = test: Pre-emergence herbicidal action, MATIN; conditions: dosage 320 g/ha, scored visually after 3 weeks vs untreated controls
Summary of the method: as §1

Alopecurus myosuroides [10] = test: Pre-emergence herbicidal action, ALOMY; conditions: for Herbicidal efficacy against ALOMY: Table L; for herbicidal activity ALOMY: scored visually after 3 weeks vs untreated controls
Summary of the method: as §1

Amaranthus retroflexus [11] = test: Pre-emergence herbicidal action, AMARE; conditions: dosage 320 g/ha, scored visually after 3 weeks vs untreated controls
Summary of the method: as §1

Polygonum convolvulus = test: Pre-emergence herbicidal action, POLCO; conditions: Table L
Summary of the method: as §1

Veronica persica = test: Post-emergence herbicidal action, VERPE; conditions: Table M
Description: as §3, §4

Stellaria media [12] = test: Post-emergence herbicidal action, STEME; conditions: 80 g/ha, Table D
Summary of the method: as §2

Setaria viridis [13] = test: Pre-emergence herbicidal action, SETVI; conditions: for Herbicidal efficacy against SETVI: Table L; for herbicidal activity SETVI: scored visually after 3 weeks vs untreated controls
Summary of the method: as §1

Abutilon theophrasti [14] = test: Pre-emergence herbicidal action, ABUTH; conditions: dosage 320 g/ha, scored visually after 3 weeks vs untreated controls
Summary of the method: as §1

Viola tricolor [15] = test: Pre-emergence herbicidal action, VIOTR; conditions: for Herbicidal efficacy against VIOTR: Table L; for herbicidal activity VIOTR: scored visually after 3 weeks vs untreated controls
Summary of the method: as §1

Alopecurus myosuroides [16] = test: Post-emergence herbicidal action, ALOMY; conditions: for herbicidal activity ALOMY: 80 g/ha, Table C; for Herbicidal efficacy against ALOMY: Table M
Summary of the method: as §2

Cc1nnc(NC(=O)c2ccc(C(F)F)c([S+](C)[O-])c2C)o1 (stereo not drawn) [Example 7-2]
Herbicidal activity STEME (Stellaria media [1]): 80% | Herbicidal activity PHBPU (Pharbitis purpureum): 90% | Herbicidal efficacy against MATIN (Matricaria inodora [2]; dosage 20 g/ha): 70 | herbicidal activity AMARE (Amaranthus retroflexus [3]): 100% | Herbicidal efficacy against LOLMU (LOLMU; dosage 80 g/ha): 10 | Herbicidal activity ECHCG (ECHCG): 90% | Herbicidal efficacy against CYPES (Cyperus serotinus; dosage 80 g/ha): 80 | herbicidal activity CYPES (Cyperus serotinus; dosage 320 g/ha): 90% | Herbicidal efficacy against AVEFA (Avena fatua [4]; dosage 80 g/ha): 70 | herbicidal activity AVEFA (Avena fatua [4]; dosage 320 g/ha): 90% | herbicidal activity SETVI (Setaria viridis [5]): 100% | Herbicidal efficacy against SETVI (Setaria viridis [5]; dosage 20 g/ha): 100 | herbicidal activity AVEFA (Avena fatua [6]): 90% | Herbicidal efficacy against AVEFA (Avena fatua [6]; dosage 20 g/ha): 70 | herbicidal activity VIOTR (Viola tricolor [7]): 100% | Herbicidal efficacy against VIOTR (Viola tricolor [7]; dosage 20 g/ha): 100 | herbicidal activity ABUTH (Abutilon theophrasti [8]): 100% | herbicidal activity MATIN (Matricaria inodora [9]): 90% | Herbicidal efficacy against ALOMY (Alopecurus myosuroides [10]; dosage 80 g/ha): 80 | herbicidal activity ALOMY (Alopecurus myosuroides [10]; dosage 320 g/ha): 90% | herbicidal activity AMARE (Amaranthus retroflexus [11]): 100% | Herbicidal efficacy against POLCO (Polygonum convolvulus; dosage 80 g/ha): 30 | Herbicidal efficacy against VERPE (Veronica persica; dosage 20 g/ha): 100 | Herbicidal activity STEME (Stellaria media [12]): 100% | Herbicidal efficacy against SETVI (Setaria viridis [13]; dosage 80 g/ha): 90 | herbicidal activity SETVI (Setaria viridis [13]; dosage 320 g/ha): 100% | herbicidal activity ABUTH (Abutilon theophrasti [14]): 100% | Herbicidal efficacy against VIOTR (Viola tricolor [15]; dosage 80 g/ha): 100 | herbicidal activity VIOTR (Viola tricolor [15]; dosage 320 g/ha): 100%

CSc1c(C(F)F)ccc(C(=O)Nc2nnc(C)o2)c1C [Example 7-1]
herbicidal activity ALOMY (Alopecurus myosuroides [16]): 90% | Herbicidal efficacy against ALOMY (Alopecurus myosuroides [16]; dosage 20 g/ha): 70 | Herbicidal activity STEME (Stellaria media [1]): 80% | Herbicidal activity PHBPU (Pharbitis purpureum): 90% | Herbicidal efficacy against MATIN (Matricaria inodora [2]; dosage 20 g/ha): 40 | herbicidal activity AMARE (Amaranthus retroflexus [3]): 100% | Herbicidal efficacy against LOLMU (LOLMU; dosage 80 g/ha): 0 | Herbicidal efficacy against LOLMU (LOLMU; dosage 320 g/ha): 30 | Herbicidal activity ECHCG (ECHCG): 100% | Herbicidal efficacy against CYPES (Cyperus serotinus; dosage 80 g/ha): 60 | Herbicidal efficacy against CYPES (Cyperus serotinus; dosage 320 g/ha): 70 | Herbicidal efficacy against AVEFA (Avena fatua [4]; dosage 80 g/ha): 20 | Herbicidal efficacy against AVEFA (Avena fatua [4]; dosage 320 g/ha): 70 | herbicidal activity SETVI (Setaria viridis [5]): 100% | Herbicidal efficacy against SETVI (Setaria viridis [5]; dosage 20 g/ha): 100 | Herbicidal efficacy against AVEFA (Avena fatua [6]; dosage 20 g/ha): 40 | herbicidal activity VIOTR (Viola tricolor [7]): 100% | Herbicidal efficacy against VIOTR (Viola tricolor [7]; dosage 20 g/ha): 100 | herbicidal activity ABUTH (Abutilon theophrasti [8]): 100% | herbicidal activity MATIN (Matricaria inodora [9]): 80% | Herbicidal efficacy against ALOMY (Alopecurus myosuroides [10]; dosage 80 g/ha): 60 | Herbicidal efficacy against ALOMY (Alopecurus myosuroides [10]; dosage 320 g/ha): 70 | herbicidal activity AMARE (Amaranthus retroflexus [11]): 100% | Herbicidal efficacy against POLCO (Polygonum convolvulus; dosage 80 g/ha): 30 | Herbicidal efficacy against POLCO (Polygonum convolvulus; dosage 320 g/ha): 40 | Herbicidal efficacy against VERPE (Veronica persica; dosage 20 g/ha): 90 | Herbicidal activity STEME (Stellaria media [12]): 90% | Herbicidal efficacy against SETVI (Setaria viridis [13]; dosage 80 g/ha): 70 | Herbicidal efficacy against SETVI (Setaria viridis [13]; dosage 320 g/ha): 100 | Herbicidal efficacy against VIOTR (Viola tricolor [15]; dosage 80 g/ha): 90 | Herbicidal efficacy against VIOTR (Viola tricolor [15]; dosage 320 g/ha): 100 | herbicidal activity VIOTR (Viola tricolor [15]; dosage 320 g/ha): 100%

Cc1nnc(NC(=O)c2ccc(C(F)F)c(S(C)(=O)=O)c2C)o1 [Example 7-3]
herbicidal activity ALOMY (Alopecurus myosuroides [16]): 100% | Herbicidal efficacy against ALOMY (Alopecurus myosuroides [16]; dosage 20 g/ha): 60 | Herbicidal efficacy against ALOMY (Alopecurus myosuroides [16]; dosage 80 g/ha): 100 | Herbicidal activity STEME (Stellaria media [1]): 100% | Herbicidal activity PHBPU (Pharbitis purpureum): 90% | Herbicidal efficacy against MATIN (Matricaria inodora [2]; dosage 20 g/ha): 90 | Herbicidal efficacy against MATIN (Matricaria inodora [2]; dosage 80 g/ha): 100 | herbicidal activity AMARE (Amaranthus retroflexus [3]): 90% | Herbicidal efficacy against LOLMU (LOLMU; dosage 80 g/ha): 80 | Herbicidal efficacy against LOLMU (LOLMU; dosage 320 g/ha): 100 | Herbicidal activity ECHCG (ECHCG): 90% | Herbicidal efficacy against CYPES (Cyperus serotinus; dosage 80 g/ha): 100 | Herbicidal efficacy against CYPES (Cyperus serotinus; dosage 320 g/ha): 100 | herbicidal activity CYPES (Cyperus serotinus; dosage 320 g/ha): 100% | Herbicidal efficacy against AVEFA (Avena fatua [4]; dosage 80 g/ha): 90 | Herbicidal efficacy against AVEFA (Avena fatua [4]; dosage 320 g/ha): 100 | herbicidal activity AVEFA (Avena fatua [4]; dosage 320 g/ha): 100% | herbicidal activity SETVI (Setaria viridis [5]): 100% | Herbicidal efficacy against SETVI (Setaria viridis [5]; dosage 20 g/ha): 90 | Herbicidal efficacy against SETVI (Setaria viridis [5]; dosage 80 g/ha): 100 | herbicidal activity AVEFA (Avena fatua [6]): 100% | Herbicidal efficacy against AVEFA (Avena fatua [6]; dosage 20 g/ha): 90 | Herbicidal efficacy against AVEFA (Avena fatua [6]; dosage 80 g/ha): 100 | herbicidal activity VIOTR (Viola tricolor [7]): 100% | Herbicidal efficacy against VIOTR (Viola tricolor [7]; dosage 20 g/ha): 100 | Herbicidal efficacy against VIOTR (Viola tricolor [7]; dosage 80 g/ha): 100 | herbicidal activity ABUTH (Abutilon theophrasti [8]): 100% | herbicidal activity MATIN (Matricaria inodora [9]): 100% | Herbicidal efficacy against ALOMY (Alopecurus myosuroides [10]; dosage 80 g/ha): 90 | Herbicidal efficacy against ALOMY (Alopecurus myosuroides [10]; dosage 320 g/ha): 100 | herbicidal activity ALOMY (Alopecurus myosuroides [10]; dosage 320 g/ha): 100% | herbicidal activity AMARE (Amaranthus retroflexus [11]): 100% | Herbicidal efficacy against POLCO (Polygonum convolvulus; dosage 80 g/ha): 40 | Herbicidal efficacy against POLCO (Polygonum convolvulus; dosage 320 g/ha): 70 | Herbicidal efficacy against VERPE (Veronica persica; dosage 20 g/ha): 100 | Herbicidal efficacy against VERPE (Veronica persica; dosage 80 g/ha): 100 | Herbicidal activity STEME (Stellaria media [12]): 100% | Herbicidal efficacy against SETVI (Setaria viridis [13]; dosage 80 g/ha): 100 | Herbicidal efficacy against SETVI (Setaria viridis [13]; dosage 320 g/ha): 100 | herbicidal activity SETVI (Setaria viridis [13]; dosage 320 g/ha): 100% | herbicidal activity ABUTH (Abutilon theophrasti [14]): 100% | Herbicidal efficacy against VIOTR (Viola tricolor [15]; dosage 80 g/ha): 100 | Herbicidal efficacy against VIOTR (Viola tricolor [15]; dosage 320 g/ha): 100 | herbicidal activity VIOTR (Viola tricolor [15]; dosage 320 g/ha): 100%

From patent US20230183193A1, “4-DIFLUOROMETHYL BENZOYL AMIDES WITH HERBICIDAL ACTION” (BAYER CROPSCIENCE AKTIENGESELLSCHAFT, priority 2017, published 2023)
